Consider 6 molecules from ChEMBL document CHEMBL2150997, “Profiling of a prescription drug library for potential renal drug-drug interactions mediated by the organic cation transporter 2” (J Med Chem, 2011).

Some results are limits rather than exact numbers.

A short description of series [1]: Protein binding in human plasma. Type of series: ADME, cell-free. The following applies: read-out: PPB (converted).
Series [2] deals with T1, Solute carrier family 22 member 1 (Homo sapiens, UniProt O15245).
T1 sequence (O15245 whole entry): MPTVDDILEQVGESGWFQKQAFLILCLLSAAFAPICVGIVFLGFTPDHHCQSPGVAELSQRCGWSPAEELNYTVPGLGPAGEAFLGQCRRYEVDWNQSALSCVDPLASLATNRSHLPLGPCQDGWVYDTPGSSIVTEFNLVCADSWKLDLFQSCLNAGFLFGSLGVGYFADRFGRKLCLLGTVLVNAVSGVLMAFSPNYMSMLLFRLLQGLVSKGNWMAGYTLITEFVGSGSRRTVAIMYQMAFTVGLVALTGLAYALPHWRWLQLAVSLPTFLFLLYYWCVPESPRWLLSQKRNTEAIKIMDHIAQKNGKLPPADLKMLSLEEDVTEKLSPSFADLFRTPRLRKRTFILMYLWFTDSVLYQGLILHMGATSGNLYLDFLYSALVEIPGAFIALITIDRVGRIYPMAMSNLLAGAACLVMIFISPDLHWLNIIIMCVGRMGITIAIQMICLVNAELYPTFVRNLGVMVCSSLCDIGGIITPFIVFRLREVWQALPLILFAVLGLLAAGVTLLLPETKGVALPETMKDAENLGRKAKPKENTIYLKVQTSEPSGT
The format is ADME, cell-based.
Description: Inhibition of human OCT1 expressed in HEK-293-Flp-In cells incubated for 3 mins by ASP+ substrate uptake assay

Series [3] addresses T2, Multidrug and toxin extrusion protein 2 (Homo sapiens, UniProt Q86VL8).
T2 sequence (Q86VL8 whole entry): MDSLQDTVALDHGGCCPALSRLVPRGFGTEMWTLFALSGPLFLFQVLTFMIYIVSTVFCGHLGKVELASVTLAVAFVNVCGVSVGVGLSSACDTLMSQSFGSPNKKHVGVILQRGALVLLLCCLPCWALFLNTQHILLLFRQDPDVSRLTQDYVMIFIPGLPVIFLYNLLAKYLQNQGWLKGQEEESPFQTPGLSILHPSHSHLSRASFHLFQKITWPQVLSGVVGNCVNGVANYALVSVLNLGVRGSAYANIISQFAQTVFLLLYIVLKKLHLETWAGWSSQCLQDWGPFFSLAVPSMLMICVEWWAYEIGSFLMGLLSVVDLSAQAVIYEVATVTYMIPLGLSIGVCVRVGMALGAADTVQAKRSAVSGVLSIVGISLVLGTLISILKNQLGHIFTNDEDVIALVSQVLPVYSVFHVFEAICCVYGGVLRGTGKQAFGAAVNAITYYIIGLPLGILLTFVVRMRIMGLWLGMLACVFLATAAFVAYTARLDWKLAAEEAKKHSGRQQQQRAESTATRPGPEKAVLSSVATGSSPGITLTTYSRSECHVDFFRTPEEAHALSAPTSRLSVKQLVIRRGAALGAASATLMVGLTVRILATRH
Description: Inhibition of human MATE2-K expressed in HEK-293-Flp-In cells incubated for 3 mins by ASP+ substrate uptake assay

A short description of series [4]: Cmax in human. The following applies: in vivo. Type of series: ADME, organism-based.
In series [5] the target is T3, Solute carrier family 22 member 2 (Homo sapiens, UniProt O15244).
T3 sequence (O15244 whole entry): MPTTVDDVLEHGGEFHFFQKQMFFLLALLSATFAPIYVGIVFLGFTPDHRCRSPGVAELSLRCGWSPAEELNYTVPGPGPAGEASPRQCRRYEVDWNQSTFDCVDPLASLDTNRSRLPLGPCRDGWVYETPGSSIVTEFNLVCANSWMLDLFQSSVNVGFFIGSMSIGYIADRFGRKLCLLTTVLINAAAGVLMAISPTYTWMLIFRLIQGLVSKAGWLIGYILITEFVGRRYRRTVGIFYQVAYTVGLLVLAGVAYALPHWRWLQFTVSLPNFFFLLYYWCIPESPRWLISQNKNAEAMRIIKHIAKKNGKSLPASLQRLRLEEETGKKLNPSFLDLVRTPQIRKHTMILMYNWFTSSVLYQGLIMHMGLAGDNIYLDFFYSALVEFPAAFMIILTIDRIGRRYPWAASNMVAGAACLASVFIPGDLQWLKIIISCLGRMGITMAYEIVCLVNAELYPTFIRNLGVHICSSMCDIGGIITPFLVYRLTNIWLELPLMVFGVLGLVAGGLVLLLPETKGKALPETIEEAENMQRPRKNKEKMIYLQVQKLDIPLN
The format is ADME, cell-based.
Description: Inhibition of human OCT2 expressed in HEK-293-Flp-In cells incubated for 3 mins by ASP+ substrate uptake assay

Series [6] can be described thus: cells. The following applies: Homo sapiens, 0.05 h.
Description: Inhibition of human OCT2 A270S mutant expressed in HEK-293-Flp-In cells incubated for 3 mins by ASP+ substrate uptake assay
Series [7] deals with T4, Multidrug and toxin extrusion protein 1 (Homo sapiens, UniProt Q96FL8).
T4 sequence (Q96FL8 whole entry): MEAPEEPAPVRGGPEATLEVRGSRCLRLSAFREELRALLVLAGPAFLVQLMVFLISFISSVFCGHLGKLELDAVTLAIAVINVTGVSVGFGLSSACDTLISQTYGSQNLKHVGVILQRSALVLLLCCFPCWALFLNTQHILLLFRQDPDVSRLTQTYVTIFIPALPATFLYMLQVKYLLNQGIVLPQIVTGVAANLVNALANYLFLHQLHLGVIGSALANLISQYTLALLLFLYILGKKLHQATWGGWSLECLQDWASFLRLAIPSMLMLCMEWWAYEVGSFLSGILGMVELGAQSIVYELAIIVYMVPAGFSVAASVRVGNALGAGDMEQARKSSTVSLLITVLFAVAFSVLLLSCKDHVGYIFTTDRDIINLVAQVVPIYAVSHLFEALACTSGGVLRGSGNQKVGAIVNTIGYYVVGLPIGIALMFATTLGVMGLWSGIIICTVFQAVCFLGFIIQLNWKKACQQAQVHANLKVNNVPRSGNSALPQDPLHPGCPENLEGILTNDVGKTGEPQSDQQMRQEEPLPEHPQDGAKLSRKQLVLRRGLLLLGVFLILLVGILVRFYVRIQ
Description: Inhibition of human MATE1 expressed in HEK-293-Flp-In cells incubated for 3 mins by ASP+ substrate uptake assay

Broadly, the IC50 is the concentration that gives 50% inhibition. Higher therefore signals a need for much substance. `Nc1c2c(nc3ccccc13)CCCC2` [TACRINE]: the fraction unbound in series [1] was 0.45. The IC50 was 83 µM in series [2] and more than 100 µM in series [3].
In series [2], `OCCN(CCO)c1nc(N2CCCCC2)c2nc(N(CCO)CCO)nc(N3CCCCC3)c2n1` [DIPYRIDAMOLE] gave an IC50 of 81 µM.
What is called Cmax is the highest concentration seen after dosing. Consider `Cc1nccn1CC1CCc2c(c3ccccc3n2C)C1=O` (centres undefined) [ONDANSETRON], for which the peak concentration (Cmax) in series [4] was found to be 0.13 µM. This molecule displayed a concentration for half-maximal inhibition (IC50) in series [2] of more than 100 µM.
In turn, `CN/C(=N\CCSCc1nc[nH]c1C)NC#N` [CIMETIDINE] had a peak concentration (Cmax) in series [4] of 11.9 µM. For the same molecule, the 50% inhibitory concentration (IC50) in series [5] was 23 µM; in series [2], more than 100 µM; in series [6] it was 20 µM; in series [3], 39 µM. Besides, the fraction unbound in series [1] was 0.81.
Consider `CC(C)N(CCC(C(N)=O)(c1ccccc1)c1ccccn1)C(C)C` (centres undefined) [DISOPYRAMIDE], for which, in series [1], the fraction unbound is 0.5. Further, the figures for the IC50 in series [7] and in series [3] were 66 µM and more than 100 µM, respectively.
With `CN(C)CCCN1c2ccccc2CCc2ccccc21` [IMIPRAMINE], in series [1], the fraction unbound is 0.1. For the same molecule, the values for the IC50 in series [2], in series [7] and in series [3] were 37 µM, 10 µM and more than 100 µM, respectively.
